Experiment: Partition of sevoflurane and HFIP in solvent/HF system
Format: physicochemical
Details: equal volumes, 25 C, fraction of original compound found in the solvent, by gas chromatography; for Partition Coefficients of Sevoflurane and HFIP in solvent/HF system: 1,2,3-trichloropropane: solvent 1,2,3-trichloropropane / HF; for Partition Coefficients of Sevoflurane and HFIP in solvent/HF system: HC-0.8 oil: solvent HC-0.8 oil (mixture of tetrachlorobutanes) / HF; for Partition Coefficients of Sevoflurane and HFIP in solvent/HF system: Krytox: solvent Krytox (1:1 mixture of DuPont Krytox GLP 100 and K6) / HF
Procedure: The partitions of sevoflurane and of HFIP in solvent/HF system were measured by mixing a small amount of either sevoflurane or HFIP with a two-layer mixture of equal volumes of a particular solvent and HF at 25 C. After enough mixing to reach equilibrium, the fraction of original compound found in the solvent was determined by gas chromatography and quantified using standards.

SMILES | Partition Coefficients of Sevoflurane and HFIP in solvent/HF system: 1,2,3-trichloropropane | Partition Coefficients of Sevoflurane and HFIP in solvent/HF system: HC-0.8 oil | Partition Coefficients of Sevoflurane and HFIP in solvent/HF system: Krytox | Partition Coefficients of Sevoflurane and HFIP in solvent/HF system: Isooctane | Partition Coefficients of Sevoflurane and HFIP in solvent/HF system: Perfluoromethyldecalin
FCOC(C(F)(F)F)C(F)(F)F [Sevoflurane, fluoromethyl 2,2,2-trifluoro-1-(trifluoromethyl)ethyl ether] | 0.45 | 1.00 | 0.32 | 0.30 | 0.22
OC(C(F)(F)F)C(F)(F)F [HFIP, 1,1,1,3,3,3-hexafluoro-2-propanol] | <0.005 | 0.01 | <0.005 | <0.005 | <0.005

Source: patent US7230143B2, “Chromatographic method for the analysis of both in process and finished sevoflurane” (Halocarbon Products Corporation, priority 2004, dated 2007)
